# From PubChem BioAssay AID192 (DTP/NCI, 2004)
# “And” between values parts separate entries of the source, which are not always exact repeats. Equal values may be shown once. Inconclusive results and toxic doses are left out. Square brackets hold non-standard residues; d marks the D form. Peptide text beside a SMILES is read from it. * marks the point of attachment. ξ: configuration not given here. Cbz = O=C(OCc1ccccc1)*; ξV = CC(C)C(N)C(=O)O; Sar = CNCC(=O)O
# System: BDF1 mice, B16 melanoma ip, median survival T/C
# Assay: NCI In Vivo Anticancer Drug Screen. Data for tumor model B16 Melanoma (intraperitoneal) in B6D2F1 (BDF1) mice
# Details: endpoint: median survival time, higher = longer survival
# Summary of the method: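 Vehicle-treated animals serve as the reference (C); treated animals (T) are scored for survival or tumor size after tumor transplantation.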
# [1] = dose: 25.0 mg/kg/injection, schedule: Q01DX009 (ip), vehicle: Klucel (hydroxypropylcellulose) (HPC)
# [2] = dose: 50.0 mg/kg/injection, schedule: Q01DX009 (ip), vehicle: Klucel (hydroxypropylcellulose) (HPC)
# [3] = dose: 25.0 mg/kg/injection, schedule: Q01DX009 (ip), vehicle: saline
# [4] = dose: 50.0 mg/kg/injection, schedule: Q01DX009 (ip), vehicle: saline
# [5] = dose: 100.0 mg/kg/injection, schedule: Q01DX009 (ip), vehicle: saline
# [6] = dose: 200.0 mg/kg/injection, schedule: Q01DX009 (ip), vehicle: saline
# [7] = dose: 12.5 mg/kg/injection, schedule: Q01DX009 (ip), vehicle: saline with Tween-80
# [8] = dose: 25.0 mg/kg/injection, schedule: Q01DX009 (ip), vehicle: saline with Tween-80
# [9] = dose: 50.0 mg/kg/injection, schedule: Q01DX009 (ip), vehicle: saline with Tween-80
# [10] = dose: 100.0 mg/kg/injection, schedule: Q01DX009 (ip), vehicle: Klucel (hydroxypropylcellulose) (HPC)
# [11] = dose: 100.0 mg/kg/injection, schedule: Q04DX003 (ip), vehicle: Klucel (hydroxypropylcellulose) (HPC)
# [12] = dose: 200.0 mg/kg/injection, schedule: Q01DX009 (ip), vehicle: Klucel (hydroxypropylcellulose) (HPC)
# [13] = dose: 200.0 mg/kg/injection, schedule: Q04DX003 (ip), vehicle: Klucel (hydroxypropylcellulose) (HPC)
# [14] = dose: 400.0 mg/kg/injection, schedule: Q01DX009 (ip), vehicle: Klucel (hydroxypropylcellulose) (HPC)
# [15] = dose: 6.25 mg/kg/injection, schedule: Q01DX009 (ip), vehicle: saline with Tween-80
# [16] = dose: 100.0 mg/kg/injection, schedule: Q01DX009 (ip), vehicle: saline with Tween-80
# [17] = dose: 200.0 mg/kg/injection, schedule: Q01DX009 (ip), vehicle: saline with Tween-80
# [18] = dose: 400.0 mg/kg/injection, schedule: Q01DX009 (ip), vehicle: saline with Tween-80
# [19] = dose: 6.25 mg/kg/injection, schedule: Q01DX009 (ip), vehicle: saline
# [20] = dose: 12.5 mg/kg/injection, schedule: Q01DX009 (ip), vehicle: saline
smiles,measurement,setting,value
C=CCC(CC)C(=O)Cl (centres undefined),T/C,"dose: 12.5 mg/kg/injection, schedule: Q04DX003 (ip), vehicle: other",117 % of control
same,T/C,"dose: 25.0 mg/kg/injection, schedule: Q04DX003 (ip), vehicle: other",114 % of control
same,T/C,"dose: 50.0 mg/kg/injection, schedule: Q04DX003 (ip), vehicle: other",96 % of control
same,T/C,"dose: 100.0 mg/kg/injection, schedule: Q04DX003 (ip), vehicle: other",88 % of control
O=S1(=O)C=CCCC=C1,T/C,"dose: 6.25 mg/kg/injection, schedule: Q01DX009 (ip), vehicle: Klucel (hydroxypropylcellulose) (HPC)",102 % of control
same,T/C,"dose: 12.5 mg/kg/injection, schedule: Q01DX009 (ip), vehicle: Klucel (hydroxypropylcellulose) (HPC)",98 % of control
same,T/C,[1],95 % of control
same,T/C,[2],98 % of control and 102 % of control
c1ccc(OP2OCCO2)cc1,T/C,[3],88 % of control
same,T/C,[4],100 % of control
same,T/C,[5],105 % of control
same,T/C,[6],91 % of control
COc1ccc(NC(=O)Oc2ccccc2-c2ccccc2)cc1,T/C,"dose: 8.0 mg/kg/injection, schedule: Q01DX009 (ip), vehicle: saline with Tween-80",100 % of control
same,T/C,"dose: 12.0 mg/kg/injection, schedule: Q01DX009 (ip), vehicle: saline with Tween-80",95 % of control
same,T/C,[7],223 % of control
same,T/C,"dose: 18.0 mg/kg/injection, schedule: Q01DX009 (ip), vehicle: saline with Tween-80",95 % of control
same,T/C,[8],199 % of control
same,T/C,[9],213 % of control
CN(C)/C=C/C(=O)c1ccccc1[N+](=O)[O-],T/C,[10],115 % of control
same,T/C,[11],95 % of control
same,T/C,[12],100 % of control
same,T/C,[13],92 % of control
same,T/C,[14],93 % of control
same,T/C,"dose: 400.0 mg/kg/injection, schedule: Q04DX003 (ip), vehicle: Klucel (hydroxypropylcellulose) (HPC)",88 % of control
COc1cc(NS(=O)(=O)c2ccc(C(C)=O)cc2)nc(OC)n1,T/C,[10],100 % of control
same,T/C,[12],100 % of control
same,T/C,[14],93 % of control
ClC1CCC[N-]C1.ClC1CCC[N-]C1.[Cl][Pt+2]([Cl])([Cl])[Cl] (centres undefined),T/C,"dose: 0.78 mg/kg/injection, schedule: Q01DX009 (ip), vehicle: saline with Tween-80",105 % of control
same,T/C,"dose: 1.56 mg/kg/injection, schedule: Q01DX009 (ip), vehicle: saline with Tween-80",100 % of control
same,T/C,"dose: 3.13 mg/kg/injection, schedule: Q01DX009 (ip), vehicle: saline with Tween-80",97 % of control
same,T/C,[15],106 % of control
O=C(Nc1ccc(Cl)cc1)OCCN1CCOCC1,T/C,[16],110 % of control
same,T/C,[17],110 % of control
same,T/C,[18],97 % of control
CC1CNC(=O)O1 (centres undefined),T/C,[3],104 % of control
same,T/C,[4],100 % of control
same,T/C,[5],100 % of control
same,T/C,[6],92 % of control
same,T/C,"dose: 400.0 mg/kg/injection, schedule: Q01DX009 (ip), vehicle: saline",97 % of control
O=C(O)CNC(=O)C(Br)Cc1ccccc1 (centres undefined),T/C,[8],91 % of control
same,T/C,[9],88 % of control
same,T/C,[16],91 % of control
same,T/C,[18],89 % of control
COC(=O)c1ccc(Cl)nc1,T/C,[10],94 % of control
same,T/C,[14],94 % of control
Clc1ccc(C(Cl)(Cl)Cl)cc1Cl,T/C,[2],103 % of control
same,T/C,"dose: 50.0 mg/kg/injection, schedule: Q04DX003 (ip), vehicle: Klucel (hydroxypropylcellulose) (HPC)",102 % of control
same,T/C,[10],92 % of control
same,T/C,[11],102 % of control
same,T/C,[12],96 % of control
same,T/C,[13],119 % of control
CCNCCCN,T/C,[19],102 % of control
same,T/C,[20],102 % of control
same,T/C,[3],94 % of control
CCS/C(SC)=C(/c1ccccc1)[P+](c1ccccc1)(c1ccccc1)c1ccccc1,T/C,"dose: 0.19 mg/kg/injection, schedule: Q01DX009 (ip), vehicle: Klucel (hydroxypropylcellulose) (HPC)",99 % of control
same,T/C,"dose: 0.38 mg/kg/injection, schedule: Q01DX009 (ip), vehicle: Klucel (hydroxypropylcellulose) (HPC)",99 % of control
same,T/C,"dose: 0.75 mg/kg/injection, schedule: Q01DX009 (ip), vehicle: Klucel (hydroxypropylcellulose) (HPC)",100 % of control
same,T/C,"dose: 1.5 mg/kg/injection, schedule: Q01DX009 (ip), vehicle: Klucel (hydroxypropylcellulose) (HPC)",95 % of control and 106 % of control
COc1cc(C(C)(C)C)cc(OC)c1C(O)(c1c(OC)cc(C(C)(C)C)cc1OC)c1c(OC)cc(C(C)(C)C)cc1OC,T/C,[15],102 % of control
same,T/C,[7],116 % of control
same,T/C,[8],109 % of control
same,T/C,[9],121 % of control
same,T/C,[16],109 % of control
COc1cc(C(=O)OCCCN2CCOCC2)cc(OC)c1OC,T/C,"dose: 0.78 mg/kg/injection, schedule: Q01DX009 (ip), vehicle: saline",105 % of control
same,T/C,"dose: 1.56 mg/kg/injection, schedule: Q01DX009 (ip), vehicle: saline",110 % of control
same,T/C,"dose: 3.12 mg/kg/injection, schedule: Q01DX009 (ip), vehicle: saline",110 % of control
same,T/C,[19],105 % of control
same,T/C,[20],110 % of control
same,T/C,[6],89 % of control
Cn1c(N)c(C(=O)/C=C/c2ccccc2)c(=O)n(C)c1=O,T/C,[2],88 % of control
NC(CCCCNC(=O)c1ccccc1)C(=O)O (centres undefined),T/C,[9],100 % of control
same,T/C,[16],100 % of control
same,T/C,[17],92 % of control
same,T/C,[18],95 % of control
COc1cc([C@@H]2c3cc4c(cc3[C@H](O)[C@H]3COC(=O)[C@H]23)OCO4)cc(OC)c1OC,T/C,"dose: 2.0 mg/kg/injection, schedule: Q01DX009 (ip), vehicle: saline",102 % of control
same,T/C,"dose: 4.0 mg/kg/injection, schedule: Q01DX009 (ip), vehicle: saline",109 % of control
same,T/C,"dose: 8.0 mg/kg/injection, schedule: Q01DX009 (ip), vehicle: saline",104 % of control
CN(CCO)/N=N/c1nc[nH]c1C(N)=O,T/C,"dose: 50.0 mg/kg/injection, schedule: Q01DX009 (ip), vehicle: carboxymethylcellulose (CMC)",105 % of control
COc1cccc(C(=O)C(CCC#N)c2ccccc2)c1 (centres undefined),T/C,[10],103 % of control
same,T/C,[12],96 % of control
same,T/C,[14],103 % of control
O=C(C1CO1)C(Cl)(Cl)Cl (centres undefined),T/C,[20],105 % of control
same,T/C,[3],110 % of control
O=c1[nH]c(=O)n(C2CC(O)C(CO)O2)cc1Br (centres undefined),T/C,[1],101 % of control
same,T/C,[2],117 % of control
CC(C)C(NC(=O)CN(C)C(=O)OCc1ccccc1)C(=O)O (centres undefined) (Cbz-[Sar]-[ξV]-OH),T/C,[19],96 % of control
same,T/C,[20],104 % of control
same,T/C,[3],93 % of control
same,T/C,[4],97 % of control and 101 % of control
